This assay deals with T1, Dkk-1 (Mus musculus, UniProt O54908).
T1 construct: the primary circulating source of Dkk-1 in during both homeostatic and allergen-challenged conditions is platelets; from tissue; host or cells: living C57BL/6 mice; circulating Dkk-1 released from platelets
T1 sequence (O54908 32-272): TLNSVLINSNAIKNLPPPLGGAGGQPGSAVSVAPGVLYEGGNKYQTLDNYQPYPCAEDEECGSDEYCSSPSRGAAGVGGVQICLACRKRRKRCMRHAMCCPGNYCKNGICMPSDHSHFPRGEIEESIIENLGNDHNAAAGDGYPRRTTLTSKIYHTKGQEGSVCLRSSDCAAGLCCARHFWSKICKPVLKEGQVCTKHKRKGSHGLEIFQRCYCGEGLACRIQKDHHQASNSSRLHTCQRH
Nature of the assay: House dust mite (HDM)-induced asthma model. Format: in vivo, mice. The source says: FIG. 1, comprising FIG. 1A through FIG. 1F, depicts results of experiments showing the characterization of Dkk-1^d/d mice. FIG. 1A depicts flow cytometry analysis of single cell suspensions from spleen of six to ten week-old Dkk-1^d/d mice (n=5) and their wildtype littermate controls (n=3). FIG. 1B depicts flow cytometry analysis of single cell suspensions from bone marrow of six to ten week-old Dkk-1^d/d mice (n=5) and their wildtype littermate controls (n=3). FIG. 1C depicts ELISA analysis of splenic CD4 T cells isolated by MACS and stimulated with anti-CD3 and anti-CD28 mAb (2 μg/ml) for 4 days. FIG. 1C depicts percentage of cells in peripheral blood from ten to twelve week-old Dkk-1^d/d mice (n=5) and their wildtype littermate controls (n=5) measured by HEMAVAT analyzer. WBC (White blood cells), NE (Neutrophils), LY (Lymphocytes), MO (Monocytes), EO (Eosinophils) were counted. FIG. 1D depicts cell number in peripheral blood from ten to twelve week-old Dkk-1^d/d mice (n=5) and their wildtype littermate controls (n=5) measured by HEMAVAT analyzer. WBC (White blood cells), NE (Neutrophils), LY (Lymphocytes), MO (Monocytes), EO (Eosinophils) were counted. FIG. 1F depicts airway resistance of Dkk-1^d/d and C57Bl/6 mice. […] Control group mice (n=3) were challenged with PBS. […] Dkk-1 inhibitor (10 mg/kg) was injected intraperitoneally at day −1, +1, +6, +8, +10, and +12. Student's t-test was used. n.s, not significant. Small horizontal lines indicate the mean (±s.e.m.). *, p<0.05
FIG. 11, comprising FIG. 11A through FIG. 11J, depicts results of experiments showing Dkk-1 facilitates leukocyte migration and regulates leukocyte-platelet aggregate formation in type 2 inflammation. FIG. 11A depicts flow cytometry analysis of CD45^+ cells in lung homogenates from nine-week old Dkk-1^d/d mice and wildtype littermate controls (n=5-6/group) 72 hours after challenge with 30 μg HDM allergen extract. FIG. 11B depicts analysis of percentages of CD45^+CD41^+ cells in peripheral blood from nine-week old Dkk-1^d/d mice and wildtype littermate controls collected at 4 hours and 24 hours after allergen challenge. FIG. 11C depicts flow cytometry analysis of CD45+ cells after Dkk-1 protein (300 ng/mouse) was injected intraperitoneally. FIG. 11D depicts a schematic diagram of Dkk-1 inhibitor treatment protocol for each group (n=5 for each group) in the HDM-induced asthma model. HDM allergen extract (10 μg) was challenged intranasally at the indicated time points. FIG. 11E depicts analysis of CD45^+ leukocytes numbers in BALF and Lung after Dkk-1 inhibitor treatment in the HDM-induced asthma model. FIG. 11F depicts analysis of neutrophils, eosinophils, and CD4 T cell numbers in the lungs after Dkk-1 inhibitor treatment in the HDM-induced asthma model. FIG. 11G depicts analysis of the number of CD4 T cells in mediastinal LNs. FIG. 11H depicts ELISA analysis of cytokines after 4 days of stimulation of med LN cells. FIG. 111 depicts scoring of H&E staining. FIG. 11J depicts scoring of PAS staining.
FIG. 13, comprising FIG. 13A through FIG. 13C, depicts results of experiments showing pharmacological antagonism of Dkk-1 in the HDM-induced asthma model. FIG. 13A depicts neutrophils and eosinophils in BALF. FIG. 13B depicts CD4 T cell percentages in med LNs measured by flow cytometry. FIG. 13C depicts representative images H&E and PAS staining. One-way ANOVA analysis with Dunnet's post-hoc test was performed. **, p<0.005, *, p<0.05.
FIG. 18 depicts results of experiments showing a Dkk-1 monoclonal antibody treatment protects […] mice from house dust mite (HDM)-induced asthma. Six-week-old female C57Bl/6 mice were treated with PBS(n=4), HDM(n=5), HDM and isotype antibody (n=5), and HDM plus Dkk-1 mAb (n=5). 10 μg of HDM was treated intranasally on day 0, 7, 8, 9, 10 and 11. Isotype antibody or Dkk-1 mAb was treated on day −1, +1, +6, +8, and +10. On day 14, mice were sacrificed and the lungs were harvested. fHCD45+ leukocytes were counted by flow cytometry. […]

This is an account of results in patent US11135223B2, “Compositions and methods for inhibiting Dkk-1” (YALE UNIVERSITY, priority 2016, dated 2021).

`NCC1CCN(c2nccc(-c3ccc4ccccc4c3)n2)CC1` [WAY-262611, (1-(4-(naphthalen-2-yl)pyrimidin-2-yl)piperidin-4-yl)methanamine]: the “airway resistance increase by HDM” value (C57Bl/6 mice, Dkk-1 inhibitor 10 mg/kg intraperitoneally, FIG. 1F) is listed as “notably decreased”. Further, where the note is “FIG. 11G”, the “number of CD4 T cells in mediastinal lymph nodes” value is given as “reduced”. Further, the “Leukocyte infiltration including CD4 T cells, neutrophils, and eosinophils in BAL fluid and lung tissues” value (both ET (early treatment) and LT (late treatment) protocols, FIG. 11E, 11F, 13A) is listed as “markedly decreased”. The “histopathological scores (H&E, PAS)” value (challenge stage or sensitization stage treatment, FIG. 11I, 11J, 13C) is reported as “inhibition of type 2 inflammatory responses”. The “TH2 cytokine secretion from mediastinal lymph nodes” value (ex vivo stimulation of med LN cells 4 days, FIG. 11H) is reported as “diminished”. For the same compound, where the note is “mediastinal lymph nodes, FIG. 13”, the “percentage of CD4 T cells in the lymph nodes” value is “did not change”.
